{
  "source": "patent US20080262064A1",
  "about": "“Novel Compounds For The Treatment Of GI Disorders 682” (ASTRAZENECA AB, priority 2007, published 2008)",
  "data": [
    {"target": "T1, GABAB receptor (Homo sapiens, UniProt O75899+Q9UBS5)", "T1 construct": "expressed in transfected cells", "T1 sequence (Q9UBS5 15-961 limits assumed)": "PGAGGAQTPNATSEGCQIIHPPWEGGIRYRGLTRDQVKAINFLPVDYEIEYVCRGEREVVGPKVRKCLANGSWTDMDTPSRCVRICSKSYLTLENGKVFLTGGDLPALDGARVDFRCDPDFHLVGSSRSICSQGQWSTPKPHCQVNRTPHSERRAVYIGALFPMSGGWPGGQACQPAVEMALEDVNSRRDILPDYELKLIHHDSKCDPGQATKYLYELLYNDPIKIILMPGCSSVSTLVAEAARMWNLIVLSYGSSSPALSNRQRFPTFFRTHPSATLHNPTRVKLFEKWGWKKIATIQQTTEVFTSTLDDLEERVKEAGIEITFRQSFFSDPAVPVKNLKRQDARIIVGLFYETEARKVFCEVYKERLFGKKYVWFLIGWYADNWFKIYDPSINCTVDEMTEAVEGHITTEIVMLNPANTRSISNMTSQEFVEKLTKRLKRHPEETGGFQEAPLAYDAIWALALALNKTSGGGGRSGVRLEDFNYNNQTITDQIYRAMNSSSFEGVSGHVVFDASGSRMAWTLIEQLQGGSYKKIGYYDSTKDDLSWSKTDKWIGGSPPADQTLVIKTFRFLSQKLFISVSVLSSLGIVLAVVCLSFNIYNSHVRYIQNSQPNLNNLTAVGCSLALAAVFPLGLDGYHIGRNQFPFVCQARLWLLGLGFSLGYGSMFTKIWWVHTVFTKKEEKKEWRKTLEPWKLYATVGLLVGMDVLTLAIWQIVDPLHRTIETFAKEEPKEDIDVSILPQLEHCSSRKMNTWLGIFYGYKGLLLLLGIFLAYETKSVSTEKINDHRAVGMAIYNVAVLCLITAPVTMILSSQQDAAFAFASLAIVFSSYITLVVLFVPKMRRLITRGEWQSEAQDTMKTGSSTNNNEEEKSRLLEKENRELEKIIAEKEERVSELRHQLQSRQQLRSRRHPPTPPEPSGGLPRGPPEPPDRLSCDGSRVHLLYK", "T1 sequence (O75899 42-941)": "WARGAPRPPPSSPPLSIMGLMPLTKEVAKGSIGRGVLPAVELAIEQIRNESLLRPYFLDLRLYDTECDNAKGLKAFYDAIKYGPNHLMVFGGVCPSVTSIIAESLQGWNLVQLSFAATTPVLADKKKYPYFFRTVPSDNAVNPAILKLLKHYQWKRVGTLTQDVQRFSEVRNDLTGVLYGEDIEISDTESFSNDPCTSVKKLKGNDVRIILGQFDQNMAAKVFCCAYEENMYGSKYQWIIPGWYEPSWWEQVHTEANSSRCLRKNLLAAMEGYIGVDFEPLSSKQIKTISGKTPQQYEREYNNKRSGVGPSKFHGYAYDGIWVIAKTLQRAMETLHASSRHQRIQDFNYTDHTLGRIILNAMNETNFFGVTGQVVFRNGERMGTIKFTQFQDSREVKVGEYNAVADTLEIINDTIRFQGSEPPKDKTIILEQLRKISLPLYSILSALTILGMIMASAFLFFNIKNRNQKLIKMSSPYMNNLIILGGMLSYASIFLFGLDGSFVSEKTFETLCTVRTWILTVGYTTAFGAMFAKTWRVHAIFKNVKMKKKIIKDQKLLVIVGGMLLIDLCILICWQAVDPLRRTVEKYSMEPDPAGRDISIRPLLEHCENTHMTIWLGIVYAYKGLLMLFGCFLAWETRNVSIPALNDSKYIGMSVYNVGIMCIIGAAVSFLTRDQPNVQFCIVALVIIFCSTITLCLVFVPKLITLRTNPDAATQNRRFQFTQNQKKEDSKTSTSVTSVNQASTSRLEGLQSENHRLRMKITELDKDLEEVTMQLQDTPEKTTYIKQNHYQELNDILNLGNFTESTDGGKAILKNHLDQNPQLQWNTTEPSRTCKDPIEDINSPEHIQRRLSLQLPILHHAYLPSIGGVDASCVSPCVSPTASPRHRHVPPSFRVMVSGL", "assay": "[35S]-GTPγS binding assay, potency of PAM on the GABA dose-response", "assay_type": "biochemical", "details": "membranes from CHO cell lines expressing GABAB receptor; GABA in presence or absence of PAM", "from_the_text": "(§1) GABABR1a and GABABR2 were cloned from human brain cDNA and subcloned into pCI-Neo (Promega) and pALTER-1(Promega), respectively. A GABABR1a-Gαqi5 fusion protein expression vector was constructed using the pCI-Neo-GABABR1a cDNA plasmid and pLEC1-Gαqi5 (Molecular Devices, Calif.). In order to make the Gαqi5 pertussis toxin insensitive, Cys356 was mutated to Gly using standard PCR methodology with the primers 5′-[…]-3′ (forward) and 5′-GCGGCCG […]-3′ (reverse). The Gαqi5mut cDNA was ligated into the BamHI and NotI sites of pcDNA3.0 (Invitrogen). The GABAB R1a coding sequence was amplified by PCR from pCI-Neo-GABABR1a using the primers, 5′-[…]-3′ (forward) and 5′-[…]-3′ (reverse) and subcloned into the BamHI site of pcDNA3.0-Gαqis5mut.\n(§2) For generation of a cell line expressing the GABABR1a/GABABR2 heterodimer, GABABR1a plasmid DNA (4 μg) GABABR2 plasmid DNA (4 μg) and lipofectamine (24 μl) were mixed in 5 ml OptiMEM and incubated for 45 minutes at room temperature. The cells were exposed to the transfection medium for 5 hours, which then was replaced with culture medium. The cells were cultured for an additional 10 days before selection agents (300 μg/ml hygromycin and 400 μg/ml geneticin) were added. Twenty-four days after transfection, single cell sorting into 96-well plates by flow cytometry was performed using a FACS Vantage SE (Becton Dickinson, Palo Alto, Calif.), After expansion, the GABAB receptor functional response was tested using the FLIPR assay described below. The clone with the highest functional response was collected, expanded and then subcloned by single cell sorting. The clonal cell line with the highest peak response in the FLIPR was used in the present study.\n(§3) For generation of a stable cell line expressing GABABR1a-Gαqi5 fusion protein and GABABR2, GABABR1a-Gαqi5mut plasmid DNA (8 μg) GABABR2 plasmid DNA (8 μg) and lipofectamine (24 μl) were mixed in 5 ml OptiMEM and incubated for 45 minutes at room temperature. The cells were exposed to the transfection medium for 5 hours, which then was replaced with culture medium. After forty-eight hours, the cells were detached and seeded in 6 well plates (2000 cells well) and grown in culture medium supplemented with geneticin (400 μg/ml) and zeocin (250 μg/ml). After 4 days, cells from single colonies were collected and transferred to a 24-well plate. After 10 days, the cell clones were seeded in T-25 flasks and grown for another 16 days before they were tested for GABAB receptor mediated functional response. […] The clonal cell line that gave the highest peak response in the FLIPR was used in the present study.\n(§4) [^35S]-GTPγS binding assays were performed at 30° C. for 45 min in membrane buffer (100 mM NaCl, […], 1 mM EDTA, 50 mM HEPES, pH 7.4) containing 0.025 μg/μl of membrane protein (prepared from the cell lines described above) with 0.01% bovine serum albumin (fatty acid free): 10 μM GDP, 100 μM DTT and 0.53 nM [^35S]-GTPγS (Amersham-Pharmacia Biotech) in a final volume of 200 μl. Non-specific binding was determined in the presence of 20 μM GTPγS. The reaction was started by the addition of GABA at concentration between 1 mM and 0.1 nM in the presence or absence of the required concentration of PAM. The reaction was terminated by addition of ice-cold wash buffer (50 mM Tris-HCl, 5 mM MgCl2, 50 mM NaCl, pH 7.4) followed by rapid filtration under vacuum through Printed Filtermat A glass fiber filters (Wallac) (0.05% PEI treated) using a Micro 96 Harvester (Skatron Instruments). The filters were dried for 30 min at 50° C., then a paraffin scintillant pad was melted onto the filters and the bound radioactivity was determined using a 1450 Microbeta Trilux (Wallac) scintillation counter.\n(§5) GABA dose-response curves in the presence and absence of test compounds were constructed using the 4-parameter logistic equation, y=ymax+((ymin−ymax)/1+(x/C)^D), where C=EC50 and D=slope factor.", "units": {"IC50": "nM"}, "values": [
      {"smiles": "COc1nc(NC(=O)c2scc(S(=O)(=O)C(C)C)c2Cl)c(C(=O)OC(C)(C)C)n1-c1ccc(F)cc1", "note": "[Example 1, Tert-butyl 4-({[3-chloro-4-(isopropylsulfonyl)-2-thienyl]carbonyl}amino)-1-(4-fluorophenyl)-2-methoxy-1H-imidazole-5-carboxylate]", "IC50": 4000},
      {"smiles": "COc1nc(NC(=O)c2ccc(Cl)cc2)c(C(=O)OC(C)(C)C)n1-c1ccc(F)cc1", "note": "[Example 2, Tert-butyl 4-[(4-chlorobenzoyl)amino]-1-(4-fluorophenyl)-2-methoxy-1H-imidazole-5-carboxylate]", "IC50": 3100},
      {"smiles": "COc1nc(NC(=O)C2COc3ccccc3O2)c(C(=O)OC(C)(C)C)n1-c1ccc(F)cc1", "note": "(stereo not shown) [Example 3, Tert-butyl 4-[(2,3-dihydro-1,4-benzodioxin-2-ylcarbonyl)amino]-1-(4-fluorophenyl)-2-methoxy-1H-imidazole-5-carboxylate]", "IC50": 1500},
      {"smiles": "COc1nc(NC(=O)C2(c3ccc(Cl)cc3)CCCC2)c(C(=O)OC(C)(C)C)n1-c1ccc(F)cc1", "note": "[Example 4, Tert-butyl 4-({[1-(4-chlorophenyl)cyclopentyl]carbonyl}amino)-1-(4-fluorophenyl)-2-methoxy-1H-imidazole-5-carboxylate]", "IC50": 1400},
      {"smiles": "COc1nc(NC(=O)C(OC)(c2ccccc2)C(F)(F)F)c(C(=O)OC(C)(C)C)n1-c1ccc(F)cc1", "note": "(stereo not shown) [Example 5, Tert-butyl 1-(4-fluorophenyl)-2-methoxy4-[(3,3,3-trifluoro-2-methoxy-2-phenylpropanoyl)amino]-1H-imidazole-5-carboxylate]", "IC50": 6200},
      {"smiles": "COc1nc(NC(=O)c2cnn(-c3ccc(Cl)cc3)c2C(F)(F)F)c(C(=O)OC(C)(C)C)n1-c1ccc(F)cc1", "note": "[Example 6, Tert-butyl 4-({[1-(4-chlorophenyl)-5-(trifluoromethyl)-1H-pyrazol-4-yl]carbonyl}amino)-1-(4-fluorophenyl)-2-methoxy-1H-imidazole-5-carboxylate]", "IC50": 1600},
      {"smiles": "COc1nc(NC(=O)c2ccc(Oc3ccccc3)nc2)c(C(=O)OC(C)(C)C)n1-c1ccc(F)cc1", "note": "[Example 7, Tert-butyl 1-(4-fluorophenyl)-2-methoxy-4-{[(6-phenoxypyridin-3-yl)carbonyl]amino}-1H-imidazole-5-carboxylate]", "IC50": 1600},
      {"smiles": "COc1nc(NC(=O)c2c(F)cc(F)cc2F)c(C(=O)OC(C)(C)C)n1-c1ccc(F)cc1", "note": "[Example 8, Tert-butyl 1-(4-fluorophenyl)-2-methoxy-4-[(2,4,6-trifluorobenzoyl)amino]-1H-imidazole-5-carboxylate]", "IC50": 810},
      {"smiles": "COc1nc(NC(=O)c2ccc(Cl)cc2Cl)c(C(=O)OC(C)(C)C)n1-c1ccc(F)cc1", "note": "[Example 9, Tert-butyl 4-[(2,4-dichlorobenzoyl)amino]-1-(4-fluorophenyl)-2-methoxy-1H-imidazole-5-carboxylate]", "IC50": 2160},
      {"smiles": "COCCOCC(C)(C)OC(=O)c1c(NC(=O)c2ccc(Cl)cc2Cl)nc(OC)n1-c1ccc(F)cc1", "note": "[Example 10, 2-(2-methoxyethoxy)-1,1-dimethylethyl 4-[(2,4-dichlorobenzoyl)amino]-1-(4-fluorophenyl)-2-methoxy-1H-imidazole-5-carboxylate]", "IC50": 1500},
      {"smiles": "COc1nc(NC(=O)c2ccc(Cl)cc2Cl)c(C(=O)OC(C)(C)COCC(F)(F)F)n1-c1ccc(F)cc1", "note": "[Example 11, 1,1-dimethyl-2-(2,2,2-trifluoroethoxy)ethyl 4-[(2,4-dichlorobenzoyl)amino]-1-(4-fluorophenyl)-2-methoxy-1H-imidazole-5-carboxylate]", "IC50": 1100},
      {"smiles": "COc1nc(NC(=O)c2ccc(Cl)cc2Cl)c(C(=O)OC(C)(C)COc2ccccc2)n1-c1ccc(F)cc1", "note": "[Example 12, 1,1-dimethyl-2-phenoxyethyl 4-[(2,4-dichlorobenzoyl)amino]-1-(4-fluorophenyl)-2-methoxy-1H-imidazole-5-carboxylate]", "IC50": 960},
      {"smiles": "CCOC(=O)C1(OC(=O)c2c(NC(=O)c3ccc(Cl)cc3Cl)nc(OC)n2-c2ccc(F)cc2)CC1", "note": "[Example 13, 1-(ethoxycarbonyl)cyclopropyl 4-[(2,4-dichlorobenzoyl)amino]-1-(4-fluorophenyl)-2-methoxy-1H-imidazole-5-carboxylate]", "IC50": 2000},
      {"smiles": "CCC1(C)CCC(C(C)(C)OC(=O)c2c(NC(=O)c3ccc(Cl)cc3Cl)nc(OC)n2-c2ccc(F)cc2)O1", "note": "(stereo not shown) [Example 14, 1-(5-ethyl-5-methyltetrahydrofuran-2-yl)-1-methylethyl 4-[(2,4-dichlorobenzoyl)amino]-1-(4-fluorophenyl)-2-methoxy-1H-imidazole-5-carboxylate]", "IC50": 2100},
      {"smiles": "COCC(C)(C)OC(=O)c1c(NC(=O)C2COc3ccccc3O2)nc(OC)n1-c1ccc2c(c1)OCO2", "note": "(stereo not shown) [Example 15, 2-methoxy-1,1-dimethylethyl 1-(1,3-benzodioxol-5-yl)-4-[(2,3-dihydro-1,4-benzodioxin-2-ylcarbonyl)amino]-2-methoxy-1H-imidazole-5-carboxylate]", "IC50": 1400},
      {"smiles": "COCC(C)(C)OC(=O)c1c(NC(=O)c2ccc(Cl)cc2)nc(OC)n1-c1ccc2c(c1)OCO2", "note": "[Example 16, 2-methoxy-1,1-dimethylethyl 1-(1,3-benzodioxol-5-yl)-4-[(4-chlorobenzoyl)amino]-2-methoxy-1H-imidazole-5-carboxylate]", "IC50": 1200},
      {"smiles": "COCC(C)(C)OC(=O)c1c(NC(=O)COCc2ccccc2)nc(OC)n1-c1ccc2c(c1)OCO2", "note": "[Example 17, 2-methoxy-1,1-dimethylethyl 1-(1,3-benzodioxol-5-yl)-4-{[(benzyloxy)acetyl]amino}-2-methoxy-1H-imidazole-5-carboxylate]", "IC50": 3400},
      {"smiles": "COCC(C)(C)OC(=O)c1c(NC(=O)c2ccc(Cl)cc2Cl)nc(OC)n1-c1cccc(OC)c1", "note": "[Example 18, 2-methoxy-1,1-dimethylethyl 4-[(2,4-dichlorobenzoyl)amino]-2-methoxy-1-(3-methoxyphenyl)-1H-imidazole-5-carboxylate]", "IC50": 1300},
      {"smiles": "CCc1nc(NC(=O)c2ccc(N=[N+]=[N-])cc2)c(C(=O)OC(C)(C)C)n1-c1ccc(F)cc1", "note": "[Example 19, Tert-butyl 4-[(4-azidobenzoyl)amino]-2-ethyl-1-(4-fluorophenyl)-1H-imidazole-5-carboxylate]", "IC50": 1100},
      {"smiles": "CCc1nc(NC(=O)c2ccc(Cl)cc2Cl)c(C(=O)OC(C)(C)C)n1-c1ccc(F)cc1", "note": "[Example 20, Tert-butyl 4-[(2,4-dichlorobenzoyl)amino]-2-ethyl-1-(4-fluorophenyl)-1H-imidazole-5-carboxylate]", "IC50": 3700}
    ]},
    {"target": "T1, GABAB receptor", "assay": "[35S]-GTPγS binding assay, potency of PAM on the GABA dose-response", "assay_type": "biochemical", "details": "potency of PAM in GTPγS assays", "from_the_text": "as §1, §2, §3, §4, §5", "units": {"EC50": "nM"}, "values": [
      {"smiles": "COc1nc(NC(=O)c2ccc(Cl)cc2Cl)c(C(=O)OC(C)(C)C)n1-c1ccc(F)cc1", "note": "[Example 9, Tert-butyl 4-[(2,4-dichlorobenzoyl)amino]-1-(4-fluorophenyl)-2-methoxy-1H-imidazole-5-carboxylate]", "EC50": 2160},
      {"smiles": "COc1nc(NC(=O)c2ccc(Cl)cc2Cl)c(C(=O)OC(C)(C)COc2ccccc2)n1-c1ccc(F)cc1", "note": "[Example 12, 1,1-dimethyl-2-phenoxyethyl 4-[(2,4-dichlorobenzoyl)amino]-1-(4-fluorophenyl)-2-methoxy-1H-imidazole-5-carboxylate]", "EC50": 960}
    ]}
  ]
}
